Source: a melting point compilation (Tetko et al.; mined from patent text by program, amines drawn as free bases though some values may be those of a salt)

Row | melting point | Compound
1 | 170 to 175 °C | CC[C@H](C)[C@H](NC(=O)O[C@@H](CC(C)C)C(=O)O)C(N)=O
2 | 126 °C | COc1cccc(C2=CCN(c3ccc(Cl)nn3)CC2)c1
3 | > 300 °C | O=C(O)c1c2c(nc3ccc(F)cc13)-c1ccc(-c3ccccc3F)cc1CCCC2
4 | 72 to 77 °C | Cc1nn(-c2ccc([N+](=O)[O-])cc2F)c(=O)n1C(F)F
5 | 97 to 100 °C | C[C@H]1[C@H](NSc2ccccc2[N+](=O)[O-])C(=O)N1OCc1ccccc1
6 | 176 to 178 °C | COc1ccc(C(=O)Nc2ccc(F)c(F)c2)cc1NCc1ccccc1
7 | 142 °C | CC(C)N(C=O)C(=O)c1nc(Cl)c(Cl)[nH]1
8 | 141 to 142 °C | COc1cccc(C(=O)NN2C(c3ccccc3)=NOC2(C)C)c1C
9 | 140 to 142 °C | Cn1c(C(F)(F)F)cc(=O)n(-c2cc(OC(=O)OCC(Cl)(Cl)Cl)c(Cl)cc2F)c1=O
10 | 171 to 173 °C | O=C1CCC(N2C(=O)c3ccc(CNC(=O)c4ccc(SC(F)(F)F)cc4)cc3C2=O)C(=O)N1 (stereo not drawn)
11 | 129 to 130 °C | COc1cc2c(c(-c3cccc(C)c3C)c1)OC(CN)C2 (stereo not drawn)
12 | 86 to 100 °C | O=C(NCc1ccc2c(Br)c(OC(Cc3ccccc3)C(=O)O)ccc2c1)c1ccc(Oc2cc(Cl)cc(Cl)c2)o1 (stereo not drawn)
13 | 181 to 183 °C | COc1cn(-c2ccc(OCc3ccccc3)cc2F)nc(-c2ccnn2-c2ccccc2)c1=O
14 | 262 to 264 °C | CC1CN(C2=NC(=O)C(=Cc3cccc(-c4cc(F)c(O)c(C56CC7CC(CC(C7)C5)C6)c4)c3)S2)CC(C)O1 (stereo not drawn)
15 | 140 to 143 °C | CN(C)c1ccc(C=NO)c([N+](=O)[O-])c1
16 | 105 °C | CCc1nnc(N2N=C(c3ccc([N+](=O)[O-])cc3)c3cc4c(cc3C[C@H]2C)OCO4)s1
17 | 88 to 90 °C | CCOC(=O)C(CNC(C)=O)c1cn(C(=O)OCC)c2ccc(OC)cc12 (stereo not drawn)
18 | 184 °C | COc1cccc2c(=O)c3c(O)cc(OCC(O)CCl)cc3oc12 (stereo not drawn)
19 | 209 to 213 °C | Cc1c(F)cc(O)c2c(=O)c(C(=O)O)cn([C@@H]3C[C@@H]3F)c12
20 | 80 to 82.5 °C | CC(CO)c1ccc(-c2ccccc2F)c(F)c1 (stereo not drawn)
21 | 164 to 165 °C | C=C(C)Cc1cc(C(=O)O)ccc1OCc1ccc(F)cc1
22 | 157 to 158 °C | N#Cc1cnn2c1N(C(=O)CN1CCC(Cc3ccccc3)CC1)CC=C2c1cc(Cl)ccc1Cl
23 | 112 to 114 °C | S=C(NCCCCN(Cc1ccc(Cl)c(Cl)c1)c1ccccn1)NCCCn1ccnc1
24 | 59 to 62 °C | CC1(C)CC(OC(=O)CCCCCNC(=O)OC2CC(C)(C)NC(C)(C)C2)CC(C)(C)N1

Row | melting point | Compound
25 | 87.7 °C | CC(=O)Oc1c(C(C)(C)C)cc2occc2c1C(C)(C)C
26 | 282 to 285 °C | O=C(c1n[nH]c2c(=O)[nH]c3cc(Cl)ccc3c(=O)c12)N(O)Cc1ccccc1
27 | 136 to 137 °C | COCC(C)Oc1cc(Oc2ccc(S(C)(=O)=O)cc2)cc2cc(C(=O)O)[nH]c12 (stereo not drawn)
28 | 196 to 198 °C | O=C(NCCN1CCOCC1)c1nnc2ccccc2c1O
29 | 129 to 133 °C | COC(=O)Nc1ccc(-c2cccc(C3=NC(C)(C)Cc4cc(OC)c5c(c43)CC(C)(C)O5)c2)cc1
30 | 131 to 134 °C | O=Cc1c(N2CCCC2)n(C2OC(CO)C(O)C2O)c2cc(Cl)c(Cl)cc12 (stereo not drawn)
31 | 60 to 62 °C | O=C1C(=O)c2ccccc2C2=C1SCC(CNCc1ccccc1)O2 (stereo not drawn)
32 | 152 to 153 °C | COc1cc(COc2nn(-c3ccccc3)cc2/C=C/P(=O)(OC(C)C)OC(C)C)ccc1OCc1nc(-c2ccco2)oc1C
33 | 190 to 191 °C | CCc1nc2c(N)nc3ccccc3c2n1CCCCS(=O)(=O)NC
34 | 324 to 326 °C | CC1(C)Cc2c(c(N3CCCC3)nc3sc4c(NCc5ccc(S(C)(=O)=O)cc5)ncnc4c23)CO1
35 | 231 to 233 °C | Cc1ccc(Oc2ccc(-n3cc(C(=O)O)cn3)cc2)c(O)c1
36 | 67 to 69 °C | C=CCN1Cc2cscc2Nc2ccccc21
37 | 109 to 111 °C | CCCc1cccc2sc(Sc3ccc4c(c3)CC[C@H]3N(C)C(=O)CC[C@]43C)nc12
38 | 125 to 127 °C | Fc1ccc(-n2nccc2-c2ccnc(NCc3ccccc3)c2)cc1
39 | 96 to 97 °C | CCCC1=C(Br)c2cc3c(cc2C1)OCO3
40 | 192 to 193 °C | CNC(=S)Nc1ccccc1-c1nc(C)c(-c2cccnc2)[nH]1
41 | 96 to 97 °C | CSc1cc(C)nc(SC)c1NC(=O)CN1CCN(CCSc2nc3ccccc3[nH]2)CC1
42 | 126 to 127 °C | Cc1ccc(S(=O)(=O)OCCCC2(C)NC(=O)NC2=O)cc1 (stereo not drawn)
43 | 335 °C | CN1CCN(c2cc3nc4c(cc3cc2F)c(=O)c(C#N)cn4C)CC1
44 | 247 °C | CCc1ccc2sc3cc(-c4nnn[nH]4)ccc3c(=O)c2c1
45 | 142 to 143 °C | COc1ccc(/C=C/c2ccccc2[N+](=O)[O-])c([N+](=O)[O-])c1
46 | 190 to 194 °C | C=CCNc1nc(=O)c2cccnc2n1Cc1ccc(F)cc1
47 | 35 to 40 °C | CCCCCCCCCCCCCCCCOC(=O)C(C)Nc1cccc(O)c1 (stereo not drawn)
48 | 185 to 188 °C | CS(=O)(=O)OC[C@@H]1NC(=O)[C@@H]1n1c(-c2ccccc2)c(-c2ccccc2)oc1=O (relative stereo)

Row | melting point | Compound
49 | 256 to 258 °C | Cc1cc(C#N)cc(-c2ccc3c(c2)C(C)(C)OC(=O)N3)c1
50 | 117 to 119 °C | CC(C)(C)c1cc(CCc2ccccc2NC(=O)NC2CCN(CCc3ccc(F)cc3)CC2)cc(C(C)(C)C)c1O
51 | 162 °C | O=[N+]([O-])c1ccc(OCC(O)CO)c(O)c1 (stereo not drawn)
52 | 162 to 163 °C | NCCCCCCCCCCCCCCCCCC(=O)O
53 | 164 °C | O=C1CCCc2nc3ccccc3c(NCc3ccccc3F)c21
54 | 43 to 45 °C | COc1cccc(C=CC(=O)Cl)c1
55 | 180 °C | CCc1cccc2c3c([nH]c12)C(CC)(CC(=O)OC)OCC3NC(N)=O (stereo not drawn)
56 | 106 °C | CCOC(=O)Cc1nc2c(OCc3ccccc3)cccc2n1C
57 | 147 to 150 °C | C1COCCOCCNCCOCC2(COCCN1)COC2
58 | 211 °C | CCc1cn2c(N)c(Cl)cc(C(=O)NCC3CCN(CC(C)(C)OC)CC3)c2n1
59 | 224 to 226 °C | CCCn1c(CCOC)nc2c(N)nc3cc(OC4CCN(S(C)(=O)=O)CC4)ccc3c21
60 | 54 to 57 °C | O=C(O)CP(=O)(O)CCNC(=O)c1ccccc1
61 | 140 to 141 °C | Cc1nc2c(cc1Cl)C(=O)OC2=O
62 | 176 to 179 °C | FC(F)(F)c1cc(Br)c2nc(N3CCN(c4ncc(Cl)cc4Cl)CC3)[nH]c2c1
63 | 310 to 320 °C | O=C1NC(N2CCCCCC2)=N/C1=C\c1c[nH]c2ncc(Cl)cc12
64 | 84 to 85 °C | COc1ccc(OC)c(OC)c1OC
65 | 182 to 184 °C | CC1=NNS(=O)(=O)c2sc(Cl)cc21
66 | 81 to 83 °C | CC(=NOC(C)(C)C)c1cnc(NC(=O)[C@H](CC2CCCC2)c2ccc(S(C)(=O)=O)cc2)cn1
67 | 115 to 116 °C | CCOC(=O)C(=CNC1CC1)C(=O)c1c(F)c(C)c(F)c(F)c1[N+](=O)[O-]
68 | 141 °C | CCOC(=O)c1ccc(-c2ccc(OCCCNC3CC3)c(-c3ccc4c(c3)C(C)(C)CCC4(C)C)c2)cc1
69 | 128 to 130 °C | CCOC1=NS(=O)(=O)C(C(=O)OC(C)(C)C)=C1N
70 | 151 to 153 °C | CCNC(=S)C1=CC(C)(C)Oc2ccc(C#N)cc21
71 | 187 to 189 °C | COc1cc(C2(O)NC(=O)c3cc(OCc4ccccc4)ccc32)cc(OC)c1OC (stereo not drawn)
72 | 122 to 123 °C | CCCc1nn(-c2ccc(C(F)(F)F)cn2)cc1CCCOc1c(CC(=O)O)cccc1OC

Row | melting point | Compound
73 | 226 to 229 °C | O=c1[nH]cnc2c1-c1ccc(Cl)cc1C(c1ccccc1)=NC2
74 | 214 °C | O=C(O)Cc1c(C(=O)c2ccc(Cl)cc2)[nH]c2cc(F)ccc12
75 | 58 to 59 °C | O=C1CC[C@H]2CC3(C=C[C@@H]2C1)OCCO3 (relative stereo)
76 | 132 to 134 °C | Cc1c(C)c2c(c(C)c1OCc1ccc(S(C)=O)cc1)C(c1ccc(C(C)C)cc1)C(C)(C)O2 (stereo not drawn)
77 | 129 to 130 °C | CCn1nc(OCCCCc2ccc(OC(C)C)cc2Oc2ncc(C(F)(F)F)cc2Cl)cc1CCC(=O)O
78 | 127 to 130 °C | C=C(ON1C(=O)[C@@H](NC(=O)OC(C)(C)C)[C@@H]1C)C(=O)O
79 | 110 °C | CCOc1ccc([N+](=O)[O-])c(C=C[N+](=O)[O-])c1OCc1ccccc1
80 | 200 to 203 °C | CC(C)(C)OC(=O)CN1CCC(CNC(=O)c2cc(Cl)c(N)[nH]c2=O)CC1
81 | 38 to 40 °C | CCCc1sc(C#N)c2c1C(=O)CC(C)(C)C2
82 | 184 to 185 °C | Cc1ccc(C)n1-c1ccc(C=CC(=O)O)cc1
83 | 57 to 60 °C | NC(=O)N(O)CCn1ccc2ccccc21
84 | 97 to 99 °C | CC(c1ccccc1)n1cncc1C#N (single isomer, unassigned; (+))
85 | 137 °C | CC(C)(C)c1nnc(N=C2SC[C@@H]3Cc4ccccc4CN23)s1
86 | 176 °C | Cc1ccc(S(=O)(=O)Oc2ccc(S(=O)(=O)C3Cc4ccccc4C3Cl)cc2)cc1 (stereo not drawn)
87 | 238 °C | Cn1cc(-c2cc(-c3ccc4[nH]ccc4c3)ccn2)n(-c2ccc(C(C)(C)C#N)cc2)c1=O
88 | 136 to 137 °C | COc1ccccc1OCC(O)CN1CCC(N2CCN(c3ccc(Cl)cc3)C2=O)CC1 (stereo not drawn)
89 | 175 to 176 °C | CC(=O)NCCNC(=O)c1ccc(Br)o1
90 | 67 to 68 °C | CC(C)CC(=O)Nc1ccccc1
91 | 147 to 149 °C | Cc1ccccc1-c1ccc(C(=O)N2Cc3ccc(C(=O)NCc4cccnc4)n3Cc3ccccc32)cc1C
92 | 162 to 163 °C | CCOCc1nc2c(N)nc3cccnc3c2n1CCCON=C1CCN(C(C)=O)CC1
93 | 147 °C | Cc1nc(N)n(C)c(=O)c1CCN1CCC(Cc2nc3ccccc3n2Cc2ccc(F)cc2)CC1
94 | 193 to 195 °C | COc1ccc(C(=O)O)c([N+](=O)[O-])c1

Row | Compound | melting point
95 | CCC(Oc1cccc(C(F)(F)F)c1C)C1=NCCN1 (stereo not drawn) | 120 to 122 °C
96 | O=c1[nH]c(N[N+](=O)[O-])ncc1Cc1cccnc1 | 214 to 216 °C
97 | CCOC(=O)c1ncn2c1CN(C)C(=S)c1ccccc1-2 | 164 to 165 °C
98 | O=[N+]([O-])c1ccc(-c2ccc(-c3cn([C@H]4CN5CCC4CC5)nn3)s2)cn1 | 160 °C
